Literature values in article PMC10006169, “A phase I trial of LXS196, a protein kinase C (PKC) inhibitor, for metastatic uveal melanoma” (British Journal of Cancer, 2023).

Tests used:
[1] = system: UM cell lines containing mutant GNAQ or GNA11; conditions: cited from earlier work
92.1 human UM xenograft = system: 92.1 human UM xenograft; set-up: method as in PMID 27507190; conditions: doses below MTD; cited from earlier work
patients with MUM = system: patients with MUM; set-up: method as in PMID 32029634; conditions: cited from earlier work
[2] = system: HLA-A*02:01-positive patients with first-line MUM; set-up: method as in PMID 34551229; conditions: cited from earlier work

| Compound | Sensitivity of UM cell lines carrying Gα subunit mutations [1] | Tumour effect as single agent (92.1 human UM xenograft) | Estimated median PFS (patients with MUM; 95% CI: 2.5–3.6) | ORR (patients with MUM; across all doses) | Dose-limiting toxicities (patients with MUM) | Median duration of SD (patients with MUM) | Stable disease (SD) as best response (patients with MUM) | Hazard ratio (OS vs Investigator's choice) ([2]; 95% CI: 0.37–0.71) | 1-year OS rate ([2]; control group 59%) |
| --- | --- | --- | --- | --- | --- | --- | --- | --- | --- |
| CN1CCN(c2nc(C3=C(c4c[nH]c5ccccc45)C(=O)NC3=O)c3ccccc3n2)CC1 [AEB071, 3-(1H-Indol-3-yl)-4-[2-(4-methylpiperazin-1-yl)quinazolin-4-yl]pyrrole-2,5-dione] | selective sensitivity | stasis | 3.5 months | 3% | increased frequency of dose-limiting gastrointestinal (GI) toxicities associated with increasing dose | 3.75 months | 50% |  |  |
| tebentafusp: bispecific fusion protein (Immunocore) designed to redirect T cells to gp100-positive cells |  |  |  |  |  |  |  | 0.51 | 73% |
